{"source": "paper PMC8041751", "about": "“Structural basis for an exceptionally strong preference for asparagine residue at the S2 subsite of Stenotrophomonas maltophilia dipeptidyl peptidase 7” (Scientific Reports, 2021)", "key": {"[1]": {"biological_target": "SmDPP7", "experiment": "Inhibition assay using dipeptide library, Tyr-Tyr-MCA hydrolysis", "assay_type": "biochemical, Stenotrophomonas maltophilia", "settings": "for Ki: Xaa-Tyr as competitive inhibitor, substrate 200 µM Tyr-Tyr-MCA, pH 7.0, 298 K, Ki from IC50 by Cheng-Prusoff", "experimental": "Figure 1 Effect of Xaa-Tyr dipeptides on the hydrolytic activity of SmDPP7 towards synthetic substrate Tyr-Tyr-MCA. Inhibition assay was performed as described in “Materials and methods”. Residual activity was measured under conditions where 200 µM Xaa-Tyr dipeptide and 200 µM Tyr-Tyr-MCA, synthetic substrate were added into the reaction solution. […] The standard deviations were obtained from three independent experiments.\nThe dipeptide library was purchased from AnaSpec (Fremont, CA, US). Ile-Tyr and Arg-Tyr were synthesized by Eurofins Genomics (Tokyo, Japan). Cys-Tyr and Cys-Asp could not be purchased commercially. Different concentrations (3.13, 6.25, 12.5, 25, 50, 100, and 200 µM) of dipeptides as the inhibitor and 200 µM Tyr-Tyr-MCA (GenScript, NJ, US) as the substrate for DPP7 were added into a reaction buffer consisting of 50 mM sodium phosphate buffer pH 7.0, 5 mM EDTA and 0.005% Tween 20. For DPP11s, different concentrations (1.56, 3.13, 6.25, 12.5, 25, 50, and 100 µM) of dipeptides as the inhibitor and 100 µM Leu-Asp-MCA (Peptide Institute, Osaka, Japan) as the substrate were used. The enzyme reaction was performed at 298 K for 20 min and standard deviations were calculated from three independent experiments. Half-maximal inhibitory concentration (IC50) values were determined by fitting to a sigmoid curve (4-parameter logistic curve) using ImageJ software[35] and inhibition constants (Ki) were calculated using the Cheng-Prusoff Equation[36]. The fluorescence intensity of the released MCA was measured with the same method of determination of kinetics parameters toward dipeptidyl MCA."}, "[2]": {"biological_target": "wild-type SmDPP7", "experiment": "Isothermal titration calorimetry of dipeptide binding", "parameters": "species or system Stenotrophomonas maltophilia", "settings": "ITC, 50 mM sodium phosphate pH 7.0, 2.5% dimethyl sulfoxide, 25 °C", "experimental": "Figure 6 Thermodynamic parameters of dipeptide binding of SmDPP7. The value of thermodynamic parameters is represented in Table S3. The dissociation constant (Kd) and heats of binding (ΔH) were obtained using MICROCAL PEAQ-ITC Analysis software (Malvern, UK). Gibbs free energy (ΔG) and entropy energy (ΔS) were calculated according to the equation, ΔG = − RT ln Ka = RT ln Kd (Ka = 1/ Kd, association constants). Standard deviations were obtained from three independent experiments.\nThe bindings were analysed using a MICROCAL PEAQ-ITC microcalorimeter (Malvern, UK). The binding reactions were performed in 50 mM sodium phosphate pH 7.0 and 2.5% dimethyl sulfoxide at 25 °C and were stirred at 750 rpm. A single injection of 0.4 μl and 19 times injections of 2.0 μl of the dipeptide solution were injected into 350 μl of enzyme solution (wild-type SmDPP7). The wild-type SmDPP7 concentration was 25 µM and the concentration of each dipeptide solution was 250 µM in reaction buffer. Each injection was performed for 4 s with an interval of 150 s between injections. The dissociation constant (Kd) and heats of binding (ΔH) were obtained using MICROCAL PEAQ-ITC Analysis software (Malvern, UK). Gibbs free energy (ΔG) values were calculated according to ΔG = − RT ln Ka = RT ln Kd (Ka = 1/ Kd, association constants)."}}, "note": "Residues, ends and D or L forms follow the SMILES beside them."}
{"compound": "CC(C)[C@H](N)C(=O)N[C@@H](Cc1ccc(O)cc1)C(=O)O", "note": "[Val-Tyr] (H-Val-Tyr-OH)", "values": [{"measurement": "Ki", "setting": "[1]", "result": "55.2 ± 0.5", "unit": "µM"}, {"measurement": "Kd", "setting": "[2]", "result": "> 40", "unit": "µM"}]}
{"compound": "Tyr-Tyr", "values": [{"measurement": "Effect on hydrolytic activity of SmDPP7 (residual activity)", "setting": "[1]; 200 µM Xaa-Tyr dipeptide and 200 µM Tyr-Tyr-MCA, Fig. 1", "result": "markedly inhibited"}, {"measurement": "Ki", "setting": "[1]", "result": "7.66 ± 1.27", "unit": "µM"}, {"measurement": "Kd", "setting": "[2]", "result": "6.17 ± 0.39", "unit": "µM"}]}
